Test results taken from patent US12414974B2, “Materials and methods for treating cancer” (priority 2017, dated 2025).

Tested on: GBM39 cells
Experiment: MV growth kinetics (virus production, titration on Vero cells)
Format: cell-based, human
Protocol: MV strains and virus propagation. Generation and characterization of MV strains expressing human iodide symporter (MV-NIS), human carcinoembryonic antigen (MV-CEA) and green fluorescent protein (MV-GFP) has been described elsewhere (see, e.g., Dingli et al. 2004 Blood 103:1641-1646; Peng et al. 2002 Cancer Res 62:4656-4662; Duprex et al. 1999 J Virol 73:9568-9575). Viruses were propagated on Vero cells and viral stocks were prepared by repeated freezing-thawing and stored frozen at −80° C. MV titers were determined in tissue culture infectious doses 50% (TCID50) per ml by titration on Vero cells described elsewhere (see, e.g., Iankov et al. 2009 Mol Ther 17:1395-1403). High grade purified viral stocks from supernatant released viruses were prepared as described elsewhere (see, e.g., Langfield et al. 2011 Methods Mol Biol 737:345-366).
MV growth kinetics. Growth kinetics of MV in primary GBM cells was determined by titration on Vero cells for the cell-associated virus at different time points post infection with MV-NIS. Briefly, the 4×10^5 cells were inoculated at a MOI of 0.1 with MV-NIS and incubated in 6-well cell culture plates (Falcon). […] Wells positive for syncytia were counted at 72 hours and virus titers were calculated as described above. […]

## N#CC[C@H](C1CCCC1)n1cc(-c2ncnc3[nH]ccc23)cn1 [Jakafi, Ruxolitinib]
GBM39, 3 μM for 48 hours prior to infection, MV-NIS MOI 0.1, 96 hours
  increase of MV-NIS virus production vs control: ~1000 fold
GBM39, 3 μM, MV MOI 0.1, virus production 48 hours post-infection
  time of addition still sufficient to restore MV production: up to 12 hours post-infection
